Assay results from US20200003760A1, “IN-VITRO METHODS FOR CLASSIFYING DRUGS ACCORDING TO THEIR POTENTIAL TO CAUSE LIVER CELL INJURY” (Board of Trustees of Michigan State University, priority 2018, published 2020).
Where two headings read alike, the source gives them in different places.

Tests used:
[1] = cited from earlier work; for True classification: IDILI in human patients; for IDILI liability: criteria of Xu et al. (2008)
[2] = Logistic regression classification model: probability that a drug is associated with IDILI; design: species or system human; conditions: probability that drug is associated with IDILI; covariates Deltadiff, EC50 VEH, EC50 TNF, Delta VEH, Cmax; optimal cutoff 0.46
Excerpt: Classification modeling using defined covariates. In the second phase of analysis, classification models were developed using logistic regression with covariates as independent variables in the analysis and known IDILI classification as the dependent variable. A model selection process was used to determine if a covariate or set of covariates is associated with IDILI liability. Covariates were first evaluated individually to determine how well a particular covariate classified drugs according to IDILI liability, and then covariates were evaluated in combination. Combinations of covariates were selected to maximize the ability of the model to distinguish between drugs associated or not with IDILI. Specifically, covariates that describe changes in efficacy (Delta, Deltadiff, etc.) were paired with covariates that describe changes in potency (EC50, EC10, R10, etc.) to find covariate combinations that led to models that most accurately discriminated between drugs that are and are not associated with IDILI. […] The logistic regression models follow the equation: […]
where ŷi is the calculated (predicted) probability that drug i with a vector of covariates xi is associated with IDILI. The β coefficients (β0, the regression intercept; and βi, the regression slopes for model covariates, xi) were derived from the logistic regression models using 1) combinations of the covariates (xi) generated by concentration-response modeling for each of the 24 drugs evaluated in this study, and 2) the true IDILI classification for the dependent variable yi (i.e., 1 for IDILI+drugs and 0 for IDILI-drugs). […] This occurs when a covariate almost perfectly separates observations into the appropriate categories. […] When separation or quasi-complete separation occurs, use of the standard method (i.e., maximum likelihood estimation) provides biased, unreliable estimates of βi.
Receiver operating characteristic (ROC) analysis. In the third phase of the statistical approach, the classification models, generated as logistic regression models using single covariates or combinations of covariates, were evaluated by ROC analysis to determine which model and corresponding sets of covariates led to the most accurate classification of drugs according to their potential to cause IDILI. An ROC curve was created for each model by graphing the true positive rate (sensitivity; i.e., proportion of drugs correctly classified as associated with IDILI) against the false positive rate (1-specificity; i.e., proportion of drugs incorrectly classified as associated with IDILI) at various probability cutoff thresholds (k). […] An area under the curve (AUC) and confidence interval was computed for each ROC curve (where each logistic regression model has one ROC curve). […] Corresponding to each ROC curve is an optimal threshold value (k*), the threshold yielding the highest point of accuracy on the curve (i.e., the point nearest the point […] on the curve). Thus, each ROC curve has a corresponding AUC and an optimal cutoff (k*) that corresponds to the highest point of accuracy on that ROC curve.

[3] = tested on: HepG2 cells; assay: Drug/cytokine-induced cytotoxicity (% LDH release) concentration-response in HepG2 cells; assay type: cell-based, human; design: key to Deltadiff: LDH release percentage points (drug/TNF Delta minus drug/VEH Delta); conditions: for R10 / R10 IFN / R10 TNF / R10 TNF/IFN: 10 percent increase in LDH response above min, 0 when D10 = 0; for R10 / Emax: drug alone (VEH); for R10 IFN: with IFN; for R10 TNF: with TNF; for Deltadiff: Delta of drug/TNF curve minus Delta of drug/VEH curve (LDH percentage); for Emax: Homo sapiens, HepG2; for TNF change: D10TNF − D10VEH
Summary of the method: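 Cells at passage 6-16 were treated for 24 hours with drug or vehicle (water or DMSO <0.5%), alone or with TNF (10 ng/ml) and/or IFN (10 ng/ml), after overnight attachment. Cytotoxicity was scored as LDH released into medium; concentrations were expressed as [drug]/Cmax, with four-parameter logistic fits giving EC50, EC10 and R10 (+10 LDH points over baseline).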

[4] = maximal plasma concentration after pharmacologic dosing in human patients; cited from earlier work
[5] = tested on: HepG2 cells; assay: Point of departure (POD) from censored concentration-response relationships in HepG2 cells; assay type: cell-based, human; conditions: censored CRRs, 4-parameter log-logistic model
Excerpt: Partial, or censored, CRRs were then created using concentrations at or below the EC50. Nine CRC models were fit to the partial CRRs for all 24 drugs and compared to identify the best-fitting CRC model overall. Models were compared using Akaike Information Criteria (AIC; Akaike 1973, Burnham & Anderson 2002). The 4-parameter log-logistic model was selected to model censored CRRs for each of the 24 drugs since it provided the best fit (lowest AIC) for the majority of drugs. […] PODs provided a robust measure to characterize each of the CRCs using the low-concentration regions of the CRRs. In addition to POD.DRUG and POD.DRUG+TNF, POD.DIFF (i.e., POD.DRUG−POD.DRUG+TNF) and POD.RATIO (i.e., POD.DRUG/POD.DRUG+TNF) were used as covariates in the logistic regression model developed to classify the drugs according to their IDILI status. […] The horizontal blue line illustrates the mean control value estimated by pooling LDH % responses at the zero concentrations for both CRRs above. The horizontal dashed red line illustrates an upper limit of the pooled control data as the control mean plus 2 control standard deviations. PODs were then calculated for each curve as the effective concentration corresponding to the upper limit of the pooled control data, shown as vertical dashed red lines.

[6] = categorical, Delta threshold 10 LDH percentage points, read-out: D10
[7] = maximal LDH response, 24 h, read-out: max

## CS(=O)(=O)c1ccc(C2=C(c3ccccc3)C(=O)OC2)cc1 [Rofecoxib]
[1]
  True classification: IDILI−
  IDILI liability: IDILI−
[2]
  Estimated probability: 0.1278
[3]
  R10: 0 [drug]/Cmax
  R10 IFN: 0 [drug]/Cmax
  R10 TNF: 0 [drug]/Cmax
  Deltadiff: 0
[3]; with TNF and IFN
  R10 TNF/IFN: 0 [drug]/Cmax
[3]; [6]
  Emax: < 10%
[3]; [7]
  Emax: 12.2%
[3]; categorical
  TNF change: 0
[4]
  Cmax: 1000 nM

## CN[C@H]1CC[C@@H](c2ccc(Cl)c(Cl)c2)c2ccccc21 [Sertraline]
[1]
  True classification: IDILI−
  IDILI liability: IDILI−
[2]
  Estimated probability: 0.1275
[3]
  R10: 0 [drug]/Cmax
  R10 IFN: 0 [drug]/Cmax
  R10 TNF: 0 [drug]/Cmax
  Deltadiff: 0
[3]; with TNF and IFN
  R10 TNF/IFN: 0 [drug]/Cmax
[3]; [6]
  Emax: < 10%
[3]; [7]
  Emax: 14%
[3]; categorical
  TNF change: 0
[4]
  Cmax: 60 nM

## N[C@@H]1[C@H]2CN(c3nc4c(cc3F)c(=O)c(C(=O)O)cn4-c3ccc(F)cc3F)C[C@@H]12 [Trovafloxacin]
[5]
  POD.DRUG versus POD.DRUG+TNF: POD.DRUG occurs at a relatively higher concentration than POD.DRUG+TNF
[3]
  R10: 0 [drug]/Cmax
  R10 IFN: 0 [drug]/Cmax
  R10 TNF: 4.8 [drug]/Cmax
  Deltadiff: 27.4
[3]; with TNF and IFN
  R10 TNF/IFN: 1.2 [drug]/Cmax
[3]; HepG2, 24 h, TNF 10 ng/ml
  cytotoxic interaction of drug with TNF: TNF significantly enhanced the cytotoxicity
[3]; HepG2, 24 h, TNF and IFN 10 ng/ml each
  effect of IFN coexposure on the drug/TNF cytotoxic interaction: coexposure to IFN enhanced the cytotoxic interaction
[3]; HepG2, 24 h, absence of cytokines
  cytotoxicity of drug on its own (LDH release): statistically significant increase in LDH release
[3]; [6]
  Emax: < 10%
[3]; [7]
  Emax: 18.7%
[3]; categorical
  TNF change: 1
[3]; value corresponding to 10% of Delta, with TNF 10 ng/ml, NA = no significant increase
  EC10 TNF: 2.3 [drug]/Cmax
[3]; value corresponding to 10% of Delta, with TNF and IFN, NA = no significant increase
  EC10 TNF/IFN: 0.5 [drug]/Cmax
[4]
  Cmax: 5000 nM
